# pIC50: −log10 of the molar value. Where two headings read alike, the source gives them in different places.
# Experiments:
# [1] = tested on: ESBL-producing Enterobacteriaceae isolates (panel of nineteen); assay: MIC of cephalosporins alone or with clavulanate/tazobactam, whole panel; type: cell-based; details: cephalosporin alone
# [2] = tested on: Enterobacter aerogenes isolates; assay: MIC of cephalosporins alone or with clavulanate/tazobactam; type: cell-based; details: Klebsiella aerogenes, clavulanate 2:1, tazobactam 4 μg/mL
# [3] = tested on: Enterobacter cloacae isolates; assay: as above; type: cell-based; details: clavulanate 2:1, tazobactam 4 μg/mL
# [4] = tested on: Klebsiella oxytoca isolates; assay: as above; type: cell-based; details: clavulanate 2:1, tazobactam 4 μg/mL
# [5] = tested on: Klebsiella pneumoniae isolates; assay: as above; type: cell-based; details: clavulanate 2:1, tazobactam 4 μg/mL
# [6] = tested on: ESBL Escherichia coli isolates; assay: Killing kinetics (time-kill); type: cell-based; details: 4X MIC of CTB+CLA
# [7] = tested on: ESBL Escherichia coli isolates; assay: MIC against isolates analyzed in time-kill experiments; type: cell-based
# [8] = tested on: ESBL Klebsiella pneumoniae isolates; assay: as above; type: cell-based
# [9] = tested on: Yersinia pestis Colorado92; assay: microbe, parasite or virus in culture; type: cell-based
# [10] = tested on: Francisella tularensis ShuS4; assay: microbe, parasite or virus in culture; type: cell-based
# [11] = tested on: Burkholderia mallei China7; assay: microbe, parasite or virus in culture; type: cell-based
# [12] = tested on: beta-lactamase producing E. coli (CTX-M-55; CTX-M-15, TEM-OSBL); assay: microbe, parasite or virus in culture; type: cell-based
# [13] = biological target: T1, CTX-M-15 (Escherichia coli, UniProt Q9EXV5); type: biochemical
# [14] = biological target: T1, CTX-M-15; assay: Competition assay with nitrocefin (IC50); type: biochemical
# [15] = tested on: E. coli clinical isolate expressing the ESBL CTX-M-15; type: in vivo, mouse; details: 0.5-4 mg/kg q4 hr s.c. for 3 days
# [16] = tested on: AECO001; assay: MIC of cephalosporins (Table 16); type: cell-based
# [17] = tested on: CTX-M-15 Strain; assay: MIC of cephalosporins without and with CLV (Table 16); type: cell-based
# [18] = sub-saturating conditions, simulated from measured kinetic constants
# T1 sequence (Q9EXV5 entry or part of it): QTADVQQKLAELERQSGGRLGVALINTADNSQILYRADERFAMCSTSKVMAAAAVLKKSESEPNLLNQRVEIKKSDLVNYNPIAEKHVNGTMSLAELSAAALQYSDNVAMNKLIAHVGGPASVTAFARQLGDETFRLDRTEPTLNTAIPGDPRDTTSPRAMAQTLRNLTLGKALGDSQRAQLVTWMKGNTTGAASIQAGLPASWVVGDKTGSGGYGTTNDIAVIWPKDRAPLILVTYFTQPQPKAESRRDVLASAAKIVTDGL
smiles,measurement,setting,value
"Nc1nc(/C(=C/CC(=O)O)C(=O)N[C@@H]2C(=O)N3C(C(=O)O)=CCS[C@H]23)cs1 [Ceftibuten, ceftibuten]",ESBL-producing isolates with MIC<8 μg/mL,[1]; 19 isolates,10 of 19
same,MICs relative to CLSI/EUCAST MIC breakpoints for the approved dosing regimens,[1]; ESBL-producing Enterobacteriaceae,above the CLSI/EUCAST
same,MIC,[2]; AEAE1027 (CTX-M-14),1 µg/mL
same,MIC,[2]; AEAE1029 (CTX-M-15),8 µg/mL
same,MIC,[3]; AECL1065 (CTX-M-15),> 64 µg/mL
same,MIC,[3]; AECL1067 (CTX-M-3),32 µg/mL
same,MIC,"[4]; AKOX1005 (SHV-2, TEM-1, DHA-1)",2 µg/mL
same,MIC,[4]; AKOX1009 (CTX-M-15),4 µg/mL
same,MIC,[5]; AKPN1159 (SHV-12),4 µg/mL
same,MIC,[5]; AKPN1161 (SHV-7),2 µg/mL
same,MIC,"[5]; AKPN1162 (CTX-M-15, SHV-12)",32 µg/mL
same,MIC,"[5]; AKPN1166 (CTX-M-14, SHV-12)",4 µg/mL
same,MIC,[5]; AKPN1167 (SHV-2),2 µg/mL
same,Change in Log10 CFU/mL From Inoculum (0 hr),"[6]; AECO1156, 2 h",0.33 Log10 CFU/mL
same,Change in Log10 CFU/mL From Inoculum (0 hr),"[6]; AECO1156, 4 h",2.35 Log10 CFU/mL
same,Change in Log10 CFU/mL From Inoculum (0 hr),"[6]; AECO1156, 6 h",3.28 Log10 CFU/mL
same,Change in Log10 CFU/mL From Inoculum (0 hr),"[6]; AECO1156, 24 h",3.98 Log10 CFU/mL
same,Change in Log10 CFU/mL From Inoculum (0 hr),"[6]; AECO1157, 2 h",1.02 Log10 CFU/mL
same,Change in Log10 CFU/mL From Inoculum (0 hr),"[6]; AECO1157, 4 h",2.88 Log10 CFU/mL
same,Change in Log10 CFU/mL From Inoculum (0 hr),"[6]; AECO1157, 6 h",3.29 Log10 CFU/mL
same,Change in Log10 CFU/mL From Inoculum (0 hr),"[6]; AECO1157, 24 h",3.63 Log10 CFU/mL
same,Change in Log10 CFU/mL From Inoculum (0 hr),"[6]; AECO1162, 2 h",−0.36 Log10 CFU/mL
same,Change in Log10 CFU/mL From Inoculum (0 hr),"[6]; AECO1162, 4 h",0.17 Log10 CFU/mL
same,Change in Log10 CFU/mL From Inoculum (0 hr),"[6]; AECO1162, 6 h",2.19 Log10 CFU/mL
same,Change in Log10 CFU/mL From Inoculum (0 hr),"[6]; AECO1162, 24 h",3.46 Log10 CFU/mL
same,Change in Log10 CFU/mL From Inoculum (0 hr),"[6]; AECO1166, 2 h",−1.30 Log10 CFU/mL
same,Change in Log10 CFU/mL From Inoculum (0 hr),"[6]; AECO1166, 4 h",0.58 Log10 CFU/mL
same,Change in Log10 CFU/mL From Inoculum (0 hr),"[6]; AECO1166, 6 h",2.24 Log10 CFU/mL
same,Change in Log10 CFU/mL From Inoculum (0 hr),"[6]; AECO1166, 24 h",3.71 Log10 CFU/mL
same,MIC,"[7]; AECO1156 (CTXM-15, TEM-OSBL)",16 µg/mL
same,MIC,"[7]; AECO1157 (CTXM-15, TEM-OSBL)",8 µg/mL
same,MIC,[7]; AECO1162 (CTX-M-14),8 µg/mL
same,MIC,[7]; AECO1166 (SHV-12),2 µg/mL
same,MIC,"[8]; AKP1162 (SHV-12, CTX-M-15)",32 µg/mL
same,MIC,[8]; AKPN1159 (SHV-12),4 µg/mL
same,MIC,[9],0.03 µg/mL
same,MIC,[10],0.25 µg/mL
same,MIC,[11],1 to 2 µg/mL
same,MIC,"[12]; E. coli CTX-M-15, TEM-OSBL",> 64 µg/mL
same,MIC,"[12]; E. coli CTX-M-55, listed as CTB",>64 µg/mL
same,MIC,"[12]; Escherichia coli, E. coli CTX-M-55, read-out: MIC",> 64 µg/mL
same,concentration saturating CTX-M-15 activity,[13]; direct-turnover assay,did not saturate CTX-M-15 activity
same,Km,"[13]; read-out: KM (95% CI), CTX-M-15-mediated hydrolysis",> 100 µM
same,fold slower degradation by CTX-M-15 than cefixime,[13]; [18],about 2.5 fold
same,fold slower degradation by CTX-M-15 than cefotaxime,[13]; [18],~70 fold
same,fold slower degradation by CTX-M-15 than cefpodoxime,[13]; [18],~67 fold
same,pIC50,[14],< 3.00
same,pIC50,"[14]; read-out: IC50 (95% CI), competition with nitrocefin",< 3.00
same,"bacterial titers, bladder",[15],4.06-4.58 log10 CFU
same,"bacterial titers, kidneys",[15],4.26-5.83 log10 CFU
same,"bacterial titers, urine",[15],3.62-4.81 log10 CFU
same,"reduction of bacterial titers relative to untreated control, bladder",[15],2.8-3.35 log10 CFU
same,"reduction of bacterial titers relative to untreated control, kidneys",[15],0.6-2.17 log10 CFU
same,"reduction of bacterial titers relative to untreated control, urine",[15],2.46-3.65 log10 CFU
same,MIC,[16],0.5 µg/mL
same,MIC,[17]; read-out: MIC CTX-M-15 Strain − CLV,16 µg/mL
same,MIC CTX-M-15 Strain + CLV,[17]; with CLV,1 µg/mL

# Reference: US20180015100A1, “COMBINATION PRODUCTS FOR THE TREATMENT OF BACTERIAL INFECTIONS AND METHODS OF PRODUCING OR DOSING OF SAME” (priority 2016, published 2018)
